Experimental data reported in patent US11807693B2 (priority 2014, dated 2023).
Where two headings read alike, the source gives them in different places. Starred links: 1 amine or outer side, 2 acyl side, 3 side chain; linkers in the order of their positions; H or OH if unused. Non-standard residues stand in square brackets, D forms with d. Residues, ends and D or L forms follow the SMILES beside them. *: point of attachment. Oic = O=C(O)[C@@H]1C[C@@H]2CCCC[C@@H]2N1; Phe(4-Cl) = N[C@@H](Cc1ccc(Cl)cc1)C(=O)O; Phe(4-F) = N[C@@H](Cc1ccc(F)cc1)C(=O)O; γGlu = O=C(O)[C@H](CCC(=O)[*:2])N[*:1]; d(β3hF) = N[C@@H](CC(=O)O)Cc1ccccc1; NMeR = CN[C@@H](CCCNC(=N)N)C(=O)O; Palmitoyl = CCCCCCCCCCCCCCCC(=O)*; Tridecanoyl = CCCCCCCCCCCCC(=O)*; hArg = N=C(N)NCCCC[C@H](N)C(=O)O; Cha = N[C@@H](CC1CCCCC1)C(=O)O; αMeL = CC(C)C[C@](C)(N)C(=O)O; β3hP = O=C(O)C[C@@H]1CCCN1; Pip = O=C(O)[C@@H]1CCCCN1; Nle = CCCC[C@H](N)C(=O)O; AEEA = NCCOCCOCC(=O)O; Aib = CC(C)(N)C(=O)O

How the values were obtained:
[1] = molecular target: T1, human APJ receptor (Homo sapiens, UniProt P35414); assay: [35S] GTPγS assay, human APJ receptor; type: biochemical
T1 construct: expressed in transfected cells
T1 sequence (P35414 1-380): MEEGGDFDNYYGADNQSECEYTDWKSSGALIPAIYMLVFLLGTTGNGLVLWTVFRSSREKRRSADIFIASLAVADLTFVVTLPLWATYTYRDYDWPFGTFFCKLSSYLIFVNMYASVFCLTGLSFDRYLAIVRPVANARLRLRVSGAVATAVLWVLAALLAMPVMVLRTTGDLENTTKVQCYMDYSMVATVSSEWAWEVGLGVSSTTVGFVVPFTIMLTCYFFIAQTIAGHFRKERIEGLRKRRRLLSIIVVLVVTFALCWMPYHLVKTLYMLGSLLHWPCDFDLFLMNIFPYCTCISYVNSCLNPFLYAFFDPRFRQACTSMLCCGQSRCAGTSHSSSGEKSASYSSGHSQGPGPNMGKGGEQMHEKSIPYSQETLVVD

[2] = In vitro stability in rat plasma; type: in vitro ADME
Method in brief: (§1)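 Apelin peptides spiked to 5 μM final into rat plasma, liver homogenate or kidney homogenate and incubated at 37° C. for up to 4 hr. Aliquots quenched with MeOH containing internal standard, centrifuged, and supernatants analysed by high-resolution LC-MS.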

[3] = In vitro stability in rat liver homogenate; type: in vitro ADME; settings: tissue homogenate
Method in brief: as §1

[4] = In vitro stability in rat kidney homogenate; type: in vitro ADME; settings: rat, tissue homogenate
Method in brief: as §1

[5] = molecular target: T2, rat APJ receptor (Rattus norvegicus, UniProt Q9JHG3); assay: [35S] GTPγS assay, rat APJ receptor; type: biochemical
T2 construct: expressed in transfected cells
T2 sequence (Q9JHG3 1-377): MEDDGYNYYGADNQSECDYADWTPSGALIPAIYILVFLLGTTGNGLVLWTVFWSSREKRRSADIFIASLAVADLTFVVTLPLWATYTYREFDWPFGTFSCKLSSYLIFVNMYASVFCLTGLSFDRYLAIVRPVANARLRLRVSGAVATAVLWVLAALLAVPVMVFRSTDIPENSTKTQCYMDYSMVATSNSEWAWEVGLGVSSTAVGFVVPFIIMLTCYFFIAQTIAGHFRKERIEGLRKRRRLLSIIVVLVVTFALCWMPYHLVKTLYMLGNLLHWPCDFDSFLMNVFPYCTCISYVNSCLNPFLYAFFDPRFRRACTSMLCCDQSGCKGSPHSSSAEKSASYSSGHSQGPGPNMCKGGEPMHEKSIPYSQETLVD
Description: The membranes were incubated with modified peptides in the assay buffer. […] Bound [^35S] GTPγS was separated from free radiolabel by filtration. The filter bound radioactivity was determined by liquid scintillation counting.

[6] = rat APJ receptor, read-out: EC50 Rat APJ Receptor
[7] = Table 16, read-out: EC50 Rat APJ Receptor

SMILES | remaining at 4 h, 5 μM [2] [%] | remaining at 4 h, 5 μM [3] [%] | remaining at 4 h, 5 μM [4] [%] | other results
CCCCCCCCCCCCC(=O)N[C@@H](CCC(=O)NCCOCCOCC(=O)NCCOCCOCC(=O)N[C@@H](CC(N)=O)CC(=O)N[C@@H](CCCNC(=N)N)C(=O)N1CCC[C@H]1C(=O)N(C)[C@@H](CCCNC(=N)N)C(=O)N[C@@H](CC(C)C)C(=O)N[C@@H](CO)C(=O)N[C@@H](Cc1c[nH]cn1)C(=O)N[C@@H](CCCCN)C(=O)NCC(=O)N1CCC[C@H]1C(=O)N[C@@H](CCCC)C(=O)N1CCC[C@H]1C(=O)N[C@@H](Cc1ccc(Cl)cc1)C(=O)O)C(=O)O [compound 420] |  |  |  | EC50 ([1]; human APJ receptor): 0.0526 nM
CCCCCCCCCCCCCCCC(=O)N[C@@H](CCC(=O)NCCOCCOCC(=O)NCCOCCOCC(=O)N[C@H](CCC(N)=O)C(=O)N[C@@H](CCCNC(=N)N)C(=O)N1CCC[C@H]1C(=O)N(C)[C@@H](CCCNC(=N)N)C(=O)N[C@@H](CC1CCCCC1)C(=O)N[C@@H](CO)C(=O)N[C@@H](Cc1c[nH]cn1)C(=O)N[C@@H](Cc1ccc(F)cc1)C(=O)NCC(=O)N1[C@H](C(=O)N[C@@H](CCCC)C(=O)N2CCC[C@H]2CC(=O)N[C@@H](CC(=O)O)Cc2ccccc2)C[C@@H]2CCCC[C@@H]21)C(=O)O [compound 622] ({Palmitoyl-γGlu-AEEA-AEEA}-[dQ]RP[NMeR][Cha]SH[Phe(4-F)]G[Oic][Nle][β3hP][d(β3hF)]-OH) |  |  |  | EC50 ([1]; human APJ receptor): 11.8 nM
CCCCCCCCCCCCC(=O)N[C@@H](CCC(=O)NCCOCCOCC(=O)NCCOCCOCC(=O)N[C@@H](CCC(N)=O)C(=O)N[C@@H](CCCNC(=N)N)C(=O)N1CCC[C@H]1C(=O)N(C)[C@@H](CCCNC(=N)N)C(=O)N[C@@H](CC1CCCCC1)C(=O)N[C@@H](CO)C(=O)N[C@@H](Cc1c[nH]cn1)C(=O)N[C@@H](CCCCN)C(=O)NCC(=O)N1[C@H](C(=O)N[C@@H](CCCC)C(=O)N[C@@H](Cc2ccc(Cl)cc2)C(=O)O)C[C@@H]2CCCC[C@@H]21)C(=O)O [compound 409] ({Tridecanoyl-γGlu-AEEA-AEEA}-QRP[NMeR][Cha]SHKG[Oic][Nle][Phe(4-Cl)]-OH) |  |  |  | EC50 ([1]; Table 16): 1 nM
CCCCCCCCCCCCC(=O)N[C@@H](CCC(=O)NCCOCCOCC(=O)NCCOCCOCC(=O)N[C@@H](CCC(N)=O)C(=O)N[C@@H](CCCNC(=N)N)C(=O)N1CCCC[C@H]1C(=O)N(C)[C@@H](CCCNC(=N)N)C(=O)N[C@@H](CC1CCCCC1)C(=O)N[C@@H](CO)C(=O)N[C@@H](Cc1c[nH]cn1)C(=O)N[C@@H](CCCCN)C(=O)NCC(=O)N1[C@H](C(=O)N[C@@H](CCCC)C(=O)N2CCC[C@H]2C(=O)N[C@@H](Cc2ccc(Cl)cc2)C(=O)O)C[C@@H]2CCCC[C@@H]21)C(=O)O [compound 440] ({Tridecanoyl-γGlu-AEEA-AEEA}-QR[Pip][NMeR][Cha]SHKG[Oic][Nle]P[Phe(4-Cl)]-OH) |  |  |  | EC50 ([1]; Table 16): 3.48 nM
CCCCCCCCCCCCCCCC(=O)N[C@@H](CCC(=O)NCCOCCOCC(=O)NCCOCCOCC(=O)N[C@H](CCC(N)=O)C(=O)N[C@@H](CCCNC(=N)N)C(=O)N1CCC[C@H]1C(=O)N(C)[C@@H](CCCNC(=N)N)C(=O)N[C@@H](CC1CCCCC1)C(=O)N[C@@H](CO)C(=O)N[C@@H](Cc1c[nH]cn1)C(=O)N[C@@H](CCCCN)C(=O)NCC(=O)N1CCCC[C@H]1C(=O)NC(C)(C)C(=O)N[C@@H](Cc1ccc(Cl)cc1)C(=O)O)C(=O)O [compound 581] ({Palmitoyl-γGlu-AEEA-AEEA}-[dQ]RP[NMeR][Cha]SHKG[Pip][Aib][Phe(4-Cl)]-OH) |  |  |  | EC50 ([1]; human APJ receptor): 1.4 nM
CCCCCCCCCCCCC(=O)N[C@@H](CCC(=O)NCCOCCOCC(=O)NCCOCCOCC(=O)N[C@@H](CCC(N)=O)C(=O)N[C@@H](CCCCNC(=N)N)C(=O)N1CCC[C@H]1C(=O)N(C)[C@@H](CCCNC(=N)N)C(=O)N[C@@H](CC1CCCCC1)C(=O)N[C@@H](CO)C(=O)N[C@@H](Cc1c[nH]cn1)C(=O)N[C@@H](CCCCN)C(=O)NCC(=O)N1CCC[C@H]1C(=O)N[C@@H](CCCC)C(=O)N1CCC[C@H]1C(=O)N[C@@H](Cc1ccc(Cl)cc1)C(=O)O)C(=O)O [compound 408] ({Tridecanoyl-γGlu-AEEA-AEEA}-Q[hArg]P[NMeR][Cha]SHKGP[Nle]P[Phe(4-Cl)]-OH) |  |  |  | EC50 ([1]; Table 16): 0.0768 nM
CCCC[C@H](NC(=O)[C@@H]1C[C@@H]2CCCC[C@@H]2N1C(=O)CNC(=O)[C@H](CCCCN)NC(=O)[C@H](Cc1c[nH]cn1)NC(=O)[C@H](CO)NC(=O)[C@H](CC1CCCCC1)NC(=O)[C@H](CCCCNC(=N)N)NC(=O)[C@@H]1CCCN1C(=O)[C@H](CCCNC(=N)N)NC(=O)[C@H](CCC(N)=O)NC(=O)[C@H](CCCNC(=N)N)NC(C)=O)C(=O)N1CCC[C@H]1C(=O)N[C@@H](Cc1ccc(Cl)cc1)C(=O)O [compound 17] (Ac-RQRP[hArg][Cha]SHKG[Oic][Nle]P[Phe(4-Cl)]-OH) |  |  |  | EC50 [1]: 0.171 nM
CCCCCCCCCCCCCCCC(=O)N[C@@H](CCC(=O)NCCOCCOCC(=O)NCCOCCOCC(=O)N[C@H](CCC(N)=O)C(=O)N[C@@H](CCCNC(=N)N)C(=O)N1CCC[C@H]1C(=O)N(C)[C@@H](CCCNC(=N)N)C(=O)N[C@@H](CC1CCCCC1)C(=O)N[C@@H](CO)C(=O)N[C@@H](Cc1c[nH]cn1)C(=O)N[C@@H](CCCCN)C(=O)NCC(=O)N1[C@H](C(=O)N[C@@H](CCCC)C(=O)N[C@@H](CC(=O)O)Cc2ccccc2)C[C@@H]2CCCC[C@@H]21)C(=O)O [compound 573] ({Palmitoyl-γGlu-AEEA-AEEA}-[dQ]RP[NMeR][Cha]SHKG[Oic][Nle][d(β3hF)]-OH) | 79 | 59 | 27 | EC50 [5, 6]: 4.25 nM
CCCCCCCCCCCCC(=O)N[C@@H](CCC(=O)NCCOCCOCC(=O)NCCOCCOCC(=O)N[C@@H](CCC(N)=O)C(=O)N[C@@H](CCCCNC(=N)N)C(=O)N1CCC[C@H]1C(=O)N(C)[C@@H](CCCNC(=N)N)C(=O)N[C@@H](CC1CCCCC1)C(=O)N[C@@H](CO)C(=O)N[C@@H](Cc1c[nH]cn1)C(=O)N[C@@H](CCCCN)C(=O)NCC(=O)N1[C@H](C(=O)N[C@@H](CCCC)C(=O)N2CCC[C@H]2C(=O)N[C@@H](Cc2ccc(Cl)cc2)C(=O)O)C[C@@H]2CCCC[C@@H]21)C(=O)O [compound 362] ({Tridecanoyl-γGlu-AEEA-AEEA}-Q[hArg]P[NMeR][Cha]SHKG[Oic][Nle]P[Phe(4-Cl)]-OH) | 79 | 39 | 2.5 | EC50 [5, 7]: 3.75 nM
CCCCCCCCCCCCC(=O)N[C@@H](CCC(=O)NCCOCCOCC(=O)NCCOCCOCC(=O)N[C@@H](CCCCNC(=N)N)C(=O)N[C@@H](CCC(N)=O)C(=O)N[C@@H](CCCCNC(=N)N)C(=O)N1CCC[C@H]1C(=O)N(C)[C@@H](CCCNC(=N)N)C(=O)N[C@@H](CC1CCCCC1)C(=O)N[C@@H](CO)C(=O)N[C@@H](Cc1c[nH]cn1)C(=O)N[C@@H](CCCCN)C(=O)NCC(=O)N1[C@H](C(=O)N[C@@H](CCCC)C(=O)N2CCC[C@H]2C(=O)N[C@@H](Cc2ccc(Cl)cc2)C(=O)O)C[C@@H]2CCCC[C@@H]21)C(=O)O [compound 310] ({Tridecanoyl-γGlu-AEEA-AEEA}-[hArg]Q[hArg]P[NMeR][Cha]SHKG[Oic][Nle]P[Phe(4-Cl)]-OH) | > 90 | 15 | 1 | EC50 [5, 6]: 0.364 nM
CCCCCCCCCCCCC(=O)N[C@@H](CCC(=O)NCCOCCOCC(=O)NCCOCCOCC(=O)N[C@@H](CCC(N)=O)C(=O)N[C@@H](CCCCNC(=N)N)C(=O)N1CCC[C@H]1C(=O)N(C)[C@@H](CCCNC(=N)N)C(=O)N[C@@](C)(CC(C)C)C(=O)N[C@@H](CO)C(=O)N[C@@H](Cc1c[nH]cn1)C(=O)N[C@@H](CCCCN)C(=O)NCC(=O)N1[C@H](C(=O)N[C@@H](CCCC)C(=O)N2CCC[C@H]2C(=O)N[C@@H](Cc2ccc(Cl)cc2)C(=O)O)C[C@@H]2CCCC[C@@H]21)C(=O)O [compound 359] ({Tridecanoyl-γGlu-AEEA-AEEA}-Q[hArg]P[NMeR][αMeL]SHKG[Oic][Nle]P[Phe(4-Cl)]-OH) | 62 | 3 | 2 | EC50 [5, 7]: 0.116 nM
CCCCCCCCCCCCC(=O)N[C@@H](CCC(=O)NCCOCCOCC(=O)NCCOCCOCC(=O)N[C@@H](CCC(N)=O)C(=O)N[C@@H](CCCNC(=N)N)C(=O)N1CCC[C@H]1C(=O)N(C)[C@@H](CCCNC(=N)N)C(=O)N[C@@H](CC(C)C)C(=O)N[C@@H](CO)C(=O)N[C@@H](Cc1c[nH]cn1)C(=O)N[C@@H](CCCCN)C(=O)NCC(=O)N1CCC[C@H]1C(=O)N[C@@H](CCCC)C(=O)N1CCC[C@@]1(C)C(=O)N[C@@H](Cc1ccc(Cl)cc1)C(=O)O)C(=O)O [compound 401] | 6 | 1 | 3 | EC50 [5, 7]: 0.351 nM
